The text below walks through data of ChEMBL document CHEMBL1154479, “Newer GABA derivatives for the treatment of epilepsy including febrile seizures: a bioisosteric approach” (Eur J Med Chem, 2008).

Data set [1] has as its system Mus musculus. Briefly: Anticonvulsant activity in ip dosed Swiss albino mouse assessed as inhibition of subcutaneous strychnine-induced seizures administered 30 mins before STY challenge measured after 0.5 hrs post STY challenge. The class given is functional.
Data set [2] has as its system Mus musculus. Briefly: Anticonvulsant activity in ip dosed Swiss albino mouse assessed as inhibition of subcutaneous pentylenetetrazole-induced seizures administered 30 mins before PTZ challenge measured after 4 hrs post PTZ challenge. In kind it is functional.
Data set [3] has as its system Mus musculus. Nature of the data set: Anticonvulsant activity in Swiss albino mouse assessed as inhibition of subcutaneous pentylenetetrazole-induced seizures at 300 mg/kg, ip administered 30 mins before PTZ challenge measured after 0.5 hrs post PTZ challenge. Also on record: dose 300 mg/kg. The class given is functional, organism-based.
The test system of data set [4] is Mus musculus. Briefly: Anticonvulsant activity in ip dosed Swiss albino mouse assessed as inhibition of subcutaneous picrotoxin-induced seizures administered 30 mins before PIC challenge measured after 4 hrs post PIC challenge. The class given is functional.
Data set [5] has as its system Mus musculus. Briefly: Anticonvulsant activity in Swiss albino mouse assessed as inhibition of subcutaneous strychnine-induced seizures at 300 mg/kg, ip administered 30 mins before STY challenge measured after 4 hrs post STY challenge. The class given is functional, organism-based. On the set-up: dose 300 mg/kg.
The next data set concerns Rattus norvegicus. Briefly: Anticonvulsant activity in Wistar rat assessed as protection against hyperthermia-induced seizures at 100 mg/kg, ip relative to control. The class given is functional. The settings on record: route intraperitoneal.
Data set [6] deals with Mus musculus. Briefly: Anticonvulsant activity in Swiss albino mouse assessed as inhibition of maximal electroshock-induced seizures at 300 mg/kg, ip administered 30 mins before electroshock measured after 0.5 hrs post electroshock. Also on record: dose 300 mg/kg. The class given is functional, organism-based.
Data set [7] concerns Mus musculus. Briefly: Anticonvulsant activity in ip dosed Swiss albino mouse assessed as inhibition of subcutaneous picrotoxin-induced seizures administered 30 mins before PIC challenge measured after 0.5 hrs post PIC challenge. In kind it is functional.
Data set [8] concerns Mus musculus. Nature of the data set: Neurotoxicity in Swiss albino mouse assessed as inability of animal to maintain equilibrium on the rod for at least 1 min at 300 mg/kg, ip after 4 hrs by rotarod test. The class given is toxicity, organism-based. On the set-up: dose 300 mg/kg, route intraperitoneal. The note with it: in vivo.
Data set [9] deals with Mus musculus. Nature of the data set: Neurotoxicity in Swiss albino mouse assessed as inability of animal to maintain equilibrium on the rod for at least 1 min at 300 mg/kg, ip after 0.5 hrs by rotarod test. Also on record: dose 300 mg/kg, route intraperitoneal. The note with it: in vivo. In kind it is toxicity, organism-based.
In data set [10] the test system is Mus musculus. Nature of the data set: Anticonvulsant activity in Swiss albino mouse assessed as inhibition of subcutaneous pentylenetetrazole-induced seizures at 300 mg/kg, ip administered 30 mins before PTZ challenge measured after 4 hrs post PTZ challenge. In kind it is functional, organism-based. Also on record: dose 300 mg/kg.
Data set [11] has as its system Mus musculus. Briefly: Neurotoxicity in ip dosed Swiss albino mouse assessed as inability of animal to maintain equilibrium on the rod for at least 1 min after 0.5 hrs by rotarod test. In kind it is toxicity, organism-based. The note with it: in vivo.
In data set [12] the test system is Mus musculus. Briefly: Anticonvulsant activity in ip dosed Swiss albino mouse assessed as inhibition of subcutaneous strychnine-induced seizures administered 30 mins before STY challenge measured after 4 hrs post STY challenge. In kind it is functional.
The test system of data set [13] is Mus musculus. Briefly: Anticonvulsant activity in ip dosed Swiss albino mouse assessed as inhibition of subcutaneous pentylenetetrazole-induced seizures administered 30 mins before PTZ challenge measured after 0.5 hrs post PTZ challenge. The class given is functional.

Activity calls are given as the source filed them. The rule behind the calls is not given here.

Take `O=C(O)CCCNC(=S)N/N=C/c1cccc([N+](=O)[O-])c1`: the Activity in the data set on Mus musculus [1] was 300 mg/kg; with Mus musculus [2], 300 mg/kg; in the data set on Mus musculus [4], 100 mg/kg; in the data set on Rattus norvegicus it was 51%; in the data set with Mus musculus [7] it was 100 mg/kg; in the data set with Mus musculus [8], “Non-toxic”. The Activity entry with Mus musculus [9] is on record as “Non-toxic”. In addition, the result in the data set with Mus musculus [3], with Mus musculus [5] and in the data set with Mus musculus [6] was inactive.
As for `O=C(O)CCCNC(=S)N/N=C/c1ccc(Cl)cc1`, the Activity was 300 mg/kg with Mus musculus [1]; 100 mg/kg in the data set with Mus musculus [11]; 300 mg/kg with Mus musculus [12]; 100 mg/kg in the data set on Mus musculus [13]; 49% with Rattus norvegicus; “Non-toxic” in the data set with Mus musculus [8]. Also, the result in the data set on Mus musculus [10] and in the data set on Mus musculus [6] was inactive.
